Test results from US20060269928A1, “Compositions, methods and apparatus for supercritical fluid virus inactivation” (Aphios Corporation, priority 2005, published 2006).
“And” between values parts separate entries of the source, which are not always exact repeats. Equal values may be shown once. Read-outs that look alike come from different tables or passages of the source. Marks after values point to notes of the source that are not given here.

Key:
HIV-1Δtat-rev = details: 3,000 psig, 22 °C, single-stage; for −Log10 Inactivation: versus time and temperature control; for Log10 TCID50/ml (CFI-treated): virus supernatant diluted 1:10 in RPMI
HIV-1 p24 = details: 3,000 psig, 22 °C, single-stage; for Δp24 [% Change]: versus t & T control
Hepatitis A (HAV) virus = format: cell-based
[1] = test system: vesicular stomatitis virus (VSV); format: cell-based; details: for −log10 Kill: 3,000 psig, 50 °C, single stage, matrix FBS; for −log10 reduction: 4,000 psig, <1 min
Reovirus = format: cell-based
Poliovirus = format: cell-based; details: 3,000 psig, 50 °C, single stage, matrix FBS
parvovirus B19 [2] = experiment: B19 infectivity assay of CFI-treated plasma samples; format: cell-based, human parvovirus B19; details: 206 bars; for Infectious Units per ml, CFI-Treated Samples: 4 ml/min
Sindbis = format: cell-based
Human Adenovirus, Type 5 = format: cell-based
[3] = test system: encephalomyocarditis (EMC) virus; format: cell-based
TGE = format: cell-based
parvovirus B19 [4] = experiment: B19 DNA titre of CFI-treated plasma samples; parameters: species or system human parvovirus B19; details: 206 bars, 4 ml/min
Protocol: The conditions of different experiments performed for NIBSC, London, England with parvovirus B19-spiked in human plasma samples free of B19 antibodies are recorded in Table 16. […] Five or six samples were produced in each of the six experiments. A 2.5 ml aliquot of the feed was taken at the start of the treatment and stored at 4° C. during the run (named “before”) and a second 2.5 ml sample was placed at the same temperature as the SCoNCF system for the same duration as a control (named “time and temperature”). Once the system (isobaric chamber, connecting lines, valves and gauges) was pressurized with the supercritical fluid, the sample was pumped through the isobaric chamber at the rate of 4 ml/min. […] Finally, the system was depressurized to atmospheric pressure (1.01 bars).

[5] = test system: Bovine Diarrhea Virus (BVD); format: cell-based
[6] = test system: murine leukemia virus (MuLV); experiment: SCoNCF CFI inactivation of murine leukemia virus in laminar flow injection unit; format: cell-based, murine-C retrovirus (MuLV); details: 2,000 psig, 22 °C, <1 min
[7] = Expt 01: 50 °C, 2 stages, human plasma
[8] = Expt 02/04: 25 °C, 1 stage, volumetric average of two samples

Structure (SMILES): CCC [C3H8, Propane]
- −Log10 Inactivation (HIV-1Δtat-rev): 0.9
- Log10 TCID50/ml (CFI-treated) (HIV-1Δtat-rev): 4.1
- p24 [CFI-treated] (HIV-1 p24): 175 ng/mL
- Δp24 [% Change] (HIV-1 p24): +20%

Structure (SMILES): O=C=O [CO2, carbon dioxide]
- −Log10 Inactivation (HIV-1Δtat-rev): >3.7
- Log10 TCID50/ml (CFI-treated) (HIV-1Δtat-rev): undetected
- p24 [CFI-treated] (HIV-1 p24): 15 ng/mL
- Δp24 [% Change] (HIV-1 p24): +7%

Structure (SMILES): FC(F)Cl [FREON-22, hydrodifluorochloromethane]
- −log10 Kill (Hepatitis A (HAV) virus): 1.3 and 1.0
- −log10 Kill [1]: >6.5 and >6.6
- −log10 Kill ([1]; listed as Freon-22): > 6.6 and > 6.5
- −log10 Kill (Reovirus): 0.9 and 1.0
- −log10 Kill (Poliovirus): 4.1 and 4.2
- −log10 Kill (Poliovirus; listed as Freon-22): 4.1 and 4.2
- change in infectivity titer compared with the untreated sample (parvovirus B19 [2]; 50 °C, two-stage laminar flow CFI unit): ~2 log10
- Infectious Units per ml, CFI-Treated Samples (parvovirus B19 [2]; [7]): 5 × 10^3 Infectious Units per ml
- Infectious Units per ml, CFI-Treated Samples (parvovirus B19 [2]; [8]): 2 × 10^5* Infectious Units per ml
- −log10 Kill (Sindbis): >6.5
- −log10 Kill (Human Adenovirus, Type 5): >5.3 and >5.1
- −Log10 Inactivation (HIV-1Δtat-rev): >5.1
- Log10 TCID50/ml (CFI-treated) (HIV-1Δtat-rev): undetected
- EMC inactivated on the average [3]: ~6 logs
- EMC inactivation on the average [3]: 5.7 logs
- increase of inactivation for every 10 °C increase in temperature [3]: ~1 log
- −log10 Kill (TGE): >2.5 and >2.6
- B19 DNA Titre (IU/ml), CFI-Treated Samples (parvovirus B19 [4]; [7]): 5 × 10^10 IU/ml
- B19 DNA Titre (IU/ml), CFI-Treated Samples (parvovirus B19 [4]; [8]): 2 × 10^11* IU/ml
- −log10 Kill [5]: 2.3
- p24 [CFI-treated] (HIV-1 p24): 112 ng/mL
- Δp24 [% Change] (HIV-1 p24): −7%

Structure (SMILES): FC(F)F [Fr-23, trifluoromethane]
- Infectious Units per ml, CFI-Treated Samples (parvovirus B19 [2]; [8]): 1.7 × 10^6* Infectious Units per ml
- −Log10 Inactivation (HIV-1Δtat-rev): >3.7
- Log10 TCID50/ml (CFI-treated) (HIV-1Δtat-rev): undetected
- EMC inactivated on the average [3]: ~3 logs
- B19 DNA Titre (IU/ml), CFI-Treated Samples (parvovirus B19 [4]; [8]): 2.5 × 10^10* IU/ml
- p24 [CFI-treated] (HIV-1 p24): 20 ng/mL
- Δp24 [% Change] (HIV-1 p24): +43%

Structure (SMILES): FC(Cl)C(F)(F)F (stereo not drawn) [Fr-124]
- −log10 Kill [3]: 0.5 and 0.4

Structure (SMILES): N#N [N2]
- −Log10 Inactivation (HIV-1Δtat-rev): >5.1
- Log10 TCID50/ml (CFI-treated) (HIV-1Δtat-rev): undetected
- p24 [CFI-treated] (HIV-1 p24): 143 ng/mL
- Δp24 [% Change] (HIV-1 p24): +34%

Structure (SMILES): [N-]=[N+]=O [NITROUS OXIDE, nitrous oxide]
- −log10 reduction ([1]; 40 °C, 1 stage): 2.5
- −log10 reduction ([1]; 40 °C, 2 stages): >5.5
- inactivation ([1]; 5,000 psig, 22 °C): ~2 logs
- average inactivation ([1]; 5,000 psig, 40 °C): 4 logs
- −log10 reduction ([6]; 1 stage): 2.3 and 2.0
- −log10 reduction ([6]; 1 stage, listed as nitrous oxide): about 2
- −log10 reduction ([6]; 2 stages): >5.5
- −log10 reduction ([6]; 2 stages, listed as nitrous oxide): greater than 5.5
- −Log10 Inactivation (HIV-1Δtat-rev): >2.8
- Log10 TCID50/ml (CFI-treated) (HIV-1Δtat-rev): undetected
- p24 [CFI-treated] (HIV-1 p24): 70 ng/mL
- Δp24 [% Change] (HIV-1 p24): +25%
